Measured values taken from patent US8067424B2, “Selective inhibitors for cyclin-dependent kinases” (Emory University, priority 2007, dated 2011).
Like-named read-outs stand apart in the source and are kept apart here.

Key:
Assay type in all cases: biochemical
CK2 = assay: Kinase screen: CK2 assay; conditions: for mean activity remaining (as a percentage of the original activity), CK 2: 10 micromolar compound
Protocol: Generally, the same procedure was used for all assays. Since the total assay volume was 25.5 microliters, 0.5 microliters of inhibitors at 51× assay concentration were added to the plates before any other addition. […] The basic procedure was to add 0.5 microliters inhibitor/control in DMSO to plate. Fifteen microliters of enzyme/substrate/buffer mix were added and incubated for 5 min. Ten microliters MgATP at the relevant concentration were added and incubated for 30 min. […] The assay was transferred to a p81 filter plate and read in a scintillation counter of 30 sec/well. Note that this assay procedure was not followed for MKK1, which instead involved a two-step assay, and PKC alpha, which required the addition of lipid vesicles. CK2 assay: […]

TBK1 = target: T1, TBK1 (Homo sapiens, UniProt Q9UHD2); assay: Kinase screen: TBK1 / TBK1 (DU12569) assay; conditions: 10 micromolar compound; for remaining activity at 10 µM: read-out: mean activity remaining (as a percentage of the original activity), TBK1
T1 construct: DU12569
T1 sequence (Q9UHD2 1-729): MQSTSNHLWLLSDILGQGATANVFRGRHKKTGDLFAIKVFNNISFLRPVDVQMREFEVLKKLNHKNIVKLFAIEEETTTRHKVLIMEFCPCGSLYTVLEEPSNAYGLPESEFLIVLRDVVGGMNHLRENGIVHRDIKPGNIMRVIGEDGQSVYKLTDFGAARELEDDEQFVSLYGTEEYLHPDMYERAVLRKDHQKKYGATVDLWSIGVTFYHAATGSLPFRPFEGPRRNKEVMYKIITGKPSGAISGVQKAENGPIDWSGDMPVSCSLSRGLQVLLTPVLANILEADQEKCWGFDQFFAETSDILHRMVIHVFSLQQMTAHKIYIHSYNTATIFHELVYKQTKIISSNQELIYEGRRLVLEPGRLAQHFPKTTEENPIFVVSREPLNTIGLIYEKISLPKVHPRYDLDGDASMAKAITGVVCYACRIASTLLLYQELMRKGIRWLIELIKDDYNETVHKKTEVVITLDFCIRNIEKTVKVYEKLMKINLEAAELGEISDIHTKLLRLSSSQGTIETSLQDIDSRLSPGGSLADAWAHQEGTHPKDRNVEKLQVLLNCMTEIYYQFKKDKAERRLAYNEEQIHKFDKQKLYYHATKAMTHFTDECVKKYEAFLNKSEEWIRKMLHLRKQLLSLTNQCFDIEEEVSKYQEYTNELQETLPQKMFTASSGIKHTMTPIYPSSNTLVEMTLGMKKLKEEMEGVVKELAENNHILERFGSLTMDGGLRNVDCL
Protocol: (§1) Generally, the same procedure was used for all assays. Since the total assay volume was 25.5 microliters, 0.5 microliters of inhibitors at 51× assay concentration were added to the plates before any other addition.
(§2) The basic procedure was to add 0.5 microliters inhibitor/control in DMSO to plate. Fifteen microliters of enzyme/substrate/buffer mix were added and incubated for 5 min. Ten microliters MgATP at the relevant concentration were added and incubated for 30 min. The assay was stopped by adding 5 microliters of 3% orthophosphoric acid. The assay was transferred to a p81 filter plate and read in a scintillation counter of 30 sec/well. Note that this assay procedure was not followed for MKK1, which instead involved a two-step assay, and PKC alpha, which required the addition of lipid vesicles.
(§3) TBK1 assay: TBK1 (5-20 mU diluted in 50 mM Tris pH 7.5, 0.1 mM EGTA, 1 mg/ml BSA) was assayed against a substrate peptide ([…]) (SEQ ID NO: 31) in a final volume of 25.5 μl containing 50 mM Tris pH 7.5, 300 μM substrate peptide, 10 mM magnesium acetate and 0.05 mM [33P-g-ATP] (50-1000 cpm/pmole) and incubated for 30 min at room temperature. Assays were stopped by addition of 5 μl of 0.5 M (3%) orthophosphoric acid and then harvested onto P81 Unifilter plates with a wash buffer of 50 mM orthophosphoric acid.
as §3, with “TBK1 (DU12569)” for “TBK1”, “37)” for “31)”

PLK1 = PLK1 (Homo sapiens, UniProt P53350); assay: Kinase screen: PLK1 assay
PLK1, sequence (P53350 whole entry, species assumed): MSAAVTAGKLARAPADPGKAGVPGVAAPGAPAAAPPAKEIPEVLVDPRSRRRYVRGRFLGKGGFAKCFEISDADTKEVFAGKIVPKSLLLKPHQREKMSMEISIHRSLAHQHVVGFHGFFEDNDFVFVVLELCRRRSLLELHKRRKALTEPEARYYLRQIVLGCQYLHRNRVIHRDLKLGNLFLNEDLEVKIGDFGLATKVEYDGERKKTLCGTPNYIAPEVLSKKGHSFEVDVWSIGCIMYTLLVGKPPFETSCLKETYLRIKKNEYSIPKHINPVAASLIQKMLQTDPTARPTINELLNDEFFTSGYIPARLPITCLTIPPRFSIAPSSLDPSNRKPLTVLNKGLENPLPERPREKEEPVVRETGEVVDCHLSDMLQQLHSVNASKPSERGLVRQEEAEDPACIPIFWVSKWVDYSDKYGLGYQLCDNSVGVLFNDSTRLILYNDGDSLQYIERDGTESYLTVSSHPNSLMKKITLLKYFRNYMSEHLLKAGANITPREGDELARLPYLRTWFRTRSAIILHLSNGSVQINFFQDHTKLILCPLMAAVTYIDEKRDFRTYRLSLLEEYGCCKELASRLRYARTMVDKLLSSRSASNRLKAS
Protocol: as §1, §2
(50-1000 cpm/pmole) and incubated for 30 min at room temperature. Assays were stopped by addition of 5 μl of 0.5 M (3%) orthophosphoric acid and then harvested onto P81 Unifilter plates with a wash buffer of 50 mM orthophosphoric acid.

[1] = 10 micromolar compound, read-out: mean activity remaining (as a percentage of the original activity), PLK 1

| Structure (SMILES) | mean activity remaining (as a percentage of the original activity), CK 2 (CK2) [%] | remaining activity at 10 µM (TBK1) [%] | remaining activity at 10 µM (PLK1; [1]) [%] | mean activity remaining (as a percentage of the original activity), TBK1 (TBK1) [%] | mean activity remaining (as a percentage of the original activity), PLK 1 (PLK1; 10 micromolar compound) [%] | Mean Remaining Enzyme Activity (%) (CK2; CK2, 10 μM) | remaining activity at 10 µM (PLK1; PLK1, 10 μM, read-out: Mean Remaining Enzyme Activity (%)) [%] |
| --- | --- | --- | --- | --- | --- | --- | --- |
| CC[C@H](CO)Nc1cc(NCc2ccccc2)n2ncc(C(C)C)c2n1 [ICEC0067] | 87 | 85 | 64 |  |  |  |  |
| CC(C)c1cnn2c(NCc3ccccc3F)cc(NCCCCCN)nc12 [ICEC-0232] | 92 |  |  | 91 | 55 |  |  |
| CC(C)c1cnn2c(NCc3ccccc3)cc(NCCCCCCCN)nc12 [BS-181] |  |  |  |  |  | 108 | 100 |
| CC(C)c1cnn2c(NCc3ccccc3)cc(N[C@@H](CO)[C@H](O)CO)nc12 [ICEC0318, (3S)-3-(7-(Benzylamino)-3-isopropylpyrazolo[1,5-a]pyrimidin-5-ylamino)butane-1,2,4-triol] | 89 | 87 | 68 |  |  |  |  |
| C=C[C@H](CO)Nc1cc(NCc2ccccc2)n2ncc(C(C)C)c2n1 [ICEC0065] | 94 | 83 | 56 |  |  |  |  |
